Measurements published in EP2292225A1 (priority 1997, dated 1998).
“And” between values parts separate entries of the source, which are not always exact repeats. Identical values can stand only once. “Also recorded” adds a separate entry of the source.

How the values were obtained:
[1] = system: Vascular smooth muscle (BO54) cells; type: cell-based, baboon
left carotid artery [2] = conditions: rat, in vivo
[3] = system: balloon traumatized rabbit carotid artery; type: in vivo; conditions: rabbit, in vivo
left carotid artery [4] = experiment: Periadventitial delivery of crystals in pluronic gel after balloon trauma; type: in vivo, rats
Method: To further evaluate the efficacy of crystalline taxol to inhibit neointimal formation in rats, four groups of 5-6 adult male rats underwent balloon trauma of the left carotid artery followed immediately by periadventitial delivery of 1, 0.1,0.01 or 0 mg of taxol crystals in 500 mg of a pluronic polymer in gel matrix. Fourteen days later, the rats were sacrificed, serum was collected and their carotid arteries were processed for histologic and morphometric analysis.

[5] = Human liver slices distribution and metabolism study (HPLC); type: in vitro ADME; conditions: for % Activity in Media / % Activity in Tissue: 37°C
Method: (§1) ^3H-cytochalasin B (2 µg; 30 µCi/µg) was injected i.v. into BALB/c mice having urinary bladders that had been externally ligated. Animals were sacrificed at 15 minutes, 30 minutes, 2 hours or 16 hours post-injection. Organs were removed, blotted, weighed, air dried and assayed for radioactivity. Fifty - 73% of the total injected dose was accounted for in the tissues sampled (blood, heart, brain, muscle, bone, lung, liver, spleen, stomach, kidney, intestines, and urinary bladder). Clearance of ^3H-cytochalasin B from the blood was extremely rapid with less than 1% of the injected dose in circulation by 15 minutes. […] Cytochalasin B Metabolism. ^3H-cytochalasin B at a dose of 1.5 or 8 µg/ml was mixed with viable or non-viable human liver slices and media, and the amount of ^3H-cytochalasin B in media or tissue assessed by HPLC (Tables 8 and 9).

[6] = Tissue distribution after intravascular delivery of crystals; type: in vivo, swine; conditions: 10 µg/ml crystals in saline (saturated), three minutes under 1 atm
Method: The in vivo tissue distribution of cytochalasin B administered in crystalline form was evaluated in balloon traumatized swine femoral arteries after local delivery. A femoral artery of a Yorkshire crossbred swine was balloon traumatized by overinflation and rotation of a Vascu-Flo™ Silicone embolectomy catheter. Balloon trauma was immediately followed by intravascular delivery of 10 µg/ml ^3H-cytochalasin B crystals (Sigma Chemical Co., St. Louis, MO) in saline (saturated) for three minutes under 1 atm of pressure. Blood flow was resumed in the artery for five minutes prior to sacrifice of the animal.

[7] = MTT activity in human liver slices after 24 hour exposure; type: cell-based; conditions: for MTT Absorbance: 24 hours, mean +/- standard deviation of triplicate liver samples
Method: The cytotoxity of ^3H-cytochalasin B and its subsequent metabolites was also assessed by evaluating dose dependent changes in mitochondrial function by monitoring 3-[4, 5-dimethylthiazol-2yl]-2, 5-diphenyltetrazolium bromide (MTT) activity following a 24 hour exposure of human liver slices to the test agent (Table 10).

[8] = Biodistribution of ^3H-cytochalasin B i.v.; type: in vivo, BALB/c mice
Method: as §1

[9] = 1.5 µg/ml, Media/viable tissue, 1/4/24 Hours = r5/r6/r7
[10] = 1.5 µg/ml, Media/viable tissue, 1/4/24 Hours = r2/r3/r4
[11] = 8 µg/ml, Media/boiled tissue, 1/4/24 Hours = r8/r9/r10
[12] = 8 µg/ml, Media/viable tissue, 1/4/24 Hours = r2/r3/r4
[13] = 8 µg/ml, Media/viable tissue, 1/4/24 Hours = r5/r6/r7

CC(=O)O[C@@H]1/C=C\[C@@](C)(O)C(=O)[C@@H](C)C/C=C\[C@H]2[C@H](O)C(C)=C(C)[C@H]3C(Cc4ccccc4)NC(=O)[C@]132 (stereo partly drawn) [cytochalasin C]
minimum effective dose (MED), DNA synthesis assay [1]: 0.01 µg/mL

O=[N+]([O-])OCC(CO[N+](=O)[O-])O[N+](=O)[O-] [nitroglycerin]
therapeutic range (area under the curve of ^3H-leucine assay greater than ^3H-thymidine assay) [1]: available therapeutic range

CN[C@@H]1C[C@H]2O[C@@](C)([C@@H]1OC)n1c3ccccc3c3c4c(c5c6ccccc6n2c5c31)C(=O)NC4 [staurosporin]
therapeutic range (area under the curve of ^3H-leucine assay greater than ^3H-thymidine assay) [1]: available therapeutic range

Cc1ccc(C(=O)Nc2ccc(S(=O)(=O)O)c3cc(S(=O)(=O)O)cc(S(=O)(=O)O)c23)cc1NC(=O)c1cccc(NC(=O)Nc2cccc(C(=O)Nc3cc(C(=O)Nc4ccc(S(=O)(=O)O)c5cc(S(=O)(=O)O)cc(S(=O)(=O)O)c45)ccc3C)c2)c1 [suramin]
therapeutic range (area under the curve of ^3H-leucine assay greater than ^3H-thymidine assay) [1]: available therapeutic range

CC(=O)O[C@H]1C(=O)[C@@]2(C)[C@H]([C@H](OC(=O)c3ccccc3)[C@]3(O)C[C@H](OC(=O)[C@H](O)[C@@H](NC(=O)c4ccccc4)c4ccccc4)C(C)=C1C3(C)C)[C@]1(OC(C)=O)CO[C@@H]1C[C@@H]2O [taxol]
morphometry compared to untreated control animals (left carotid artery [2]): statistically significantly larger luminal areas and no neointimal proliferation
toxicity at the surgical site (left carotid artery [2]): significant toxicity at the surgical site
intimal proliferation [3]: no intimal or adventitial proliferation; also recorded: no intimal proliferation; also recorded: only minimal intimal proliferation
myonecrosis of the adjacent skeletal muscle (animals) (left carotid artery [4]; 0.01 mg crystals in 500 mg pluronic gel): 0/4
myonecrosis of the adjacent skeletal muscle (animals) (left carotid artery [4]; 0.1 mg crystals in 500 mg pluronic gel): 1/5
myonecrosis of the adjacent skeletal muscle (animals) (left carotid artery [4]; 1 mg crystals in 500 mg pluronic gel): 3/3
neointimal area less than that of control animals (left carotid artery [4]; 1 mg crystals in 500 mg pluronic gel, too few animals for statistics): 38%
neointimal area and neointimal/medial ratio compared to control animals (left carotid artery [4]; 0.1 and 0.01 mg, did not reach statistical significance): a reduction in their neointimal area and neointimal/medial ratio was observed
toxicity by dose group (left carotid artery [4]; crystals in pluronic gel): no (0.01 mg), minimal (0.1 mg) or limited (1.0 mg) toxicity

^3H-cytochalasin B
% Extractable Activity [5, 9]: 99.5% and 99.4% and 99.6%
%Non extractable Activity [5, 9]: 0.5% and 0.6% and 0.4%
% Activity in Media [5, 10]: 84% and 91%
% Activity in Tissue [5, 10]: 16% and 9%
% Metabolized of Extractable Activity ([5]; 8 µg/ml, Media Only, 1/4/24 Hours = r11/r12/r13): 5% and 4%
% Extractable Activity [5, 11]: 98.7% and 99.5% and 99.0%
% Metabolized of Extractable Activity [5, 11]: 5%
%Non extractable Activity [5, 11]: 1.3% and 0.5% and 1%
% Activity in Media [5, 11]: 87% and 83%
% Activity in Tissue [5, 11]: 13% and 17%
% Extractable Activity [5, 12]: 99.5% and 99.0% and 98.7%
%Non extractable Activity [5, 12]: 0.5% and 1% and 1.3%
% Activity in Media [5, 13]: 88% and 84% and 89%
% Activity in Tissue [5, 13]: 12% and 16% and 11%
metabolized ([5]; within 24 hours): 98%
amount delivered [6]: 31 µg
tissue distribution [6]: localized predominantly to the adventitia
MTT Absorbance ([7]; 0.1 µg/ml): 0.844 +/- 0.014
MTT Absorbance ([7]; 1.5 µg/ml): 0.841 +/- 0.081
MTT Absorbance ([7]; 8.0 µg/ml): 0.850 +/- 0.082
cytotoxicity of ^3H-cytochalasin B or its subsequent metabolites ([7]; 24 hour exposure): not cytotoxic
^3H activity in all tissues ([8]; by 16 hours): below 1.5 % injected dose per gram of tissue
retention of ^3H activity ([8]; mouse, in vivo): Only liver, skeletal muscle and intestines showed significant retention
